# Experimental data reported in patent US6972287B1, “Method of inhibiting amyloid protein aggregation and imaging amyloid deposits” (Pfizer Inc., priority 1999, dated 2005).
# Several values for one entry are separate records, joined by “and”; a condition that tells them apart may be missing. Equal entries are not always repeated.
# How the values were obtained:
# [1] = target: T1, Aβ(1-40) (Homo sapiens, UniProt P05067); assay: BASSR (Beta-Amyloid Self-Seeding Radioassay), inhibitors of self-seeded amyloid fibril growth; type: biochemical
# T1 construct: […]; purchased Bachem, Torrance, Calif
# T1 sequence (P05067 672-711 limits assumed): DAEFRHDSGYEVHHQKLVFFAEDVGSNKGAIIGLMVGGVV
# Experimental: BASSR (Beta-Amyloid Self-Seeding Radioassay)
# (§1) An assay for inhibitors of self-seeded amyloid fibril growth
# Assay Buffer—50 mM sodium phosphate, pH 7.5, 100 mM NaCl, 0.02% NaN3, 1 M urea (filter and store at 4° C.).
# (§2) Typically, the solution should be stored until no lag phase is seen in the assay.
# ^125I-labeled Aβ(1-40)—150K-350K cpm/μL in 100% acetonitrile—0.1% trifluoroacetic acid (TFA)—1% β-mercaptoethanol (aliquots stored at −20° C.). ^125I-labeled Aβ(1-40) can be made in accordance with the procedure set forth by H. LeVine, III in Neurobiol. Aging, 16, 755, (1995), which is hereby incorporated by reference, or this reagent may be purchased from Amersham, Arlington Heights, Ill.
# The following are the amounts of the components of the reaction mixture sufficient for 50 assay wells:
# • 1) Prepare reaction mixture above by mixing components and storing on ice. • 2) Pipet 14.5 μL of reaction mixture into each of 50 wells on a polypropylene U-bottom 96-well microtiter plate on ice. (Costar 3794). • 3) Add 1.7 μL of diluted compound to be tested to each well in a column of eight, including solvent control. Serial 3-fold dilutions from 1 mM (100 μM final) in assay buffer−urea=7 dilutions+zero. Each 96-well plate can therefore accommodate 11 samples+1 Congo Red control (0.039-5 μM final in 2-fold steps). • 4) Seal the plate with aluminum film (Beckman 538619) and incubate for 10 minutes on ice. • 5) Raise the temperature to 37° C. and incubate for 3 to 5 hours (depending on the lot of the peptide). • 6) Remove the aluminum film and add 200 μL/well of ice cold assay buffer with urea, collecting the radiolabeled fibrils by vacuum filtration through 0.2 μm pore size GVWP filters in 96-well plates (Millipore MAGV N22, Bedford, Mass.). Determine the radioactivity of the filters using standard methods well-known to those skilled in the art. BASST (Beta-Amyloid Self-Seeding, Thioflavin T)
# [2] = target: T2, Aβ (1-42) (Homo sapiens, UniProt P05067); assay: BATYM assay (Aβ (1-42) aggregation, Thioflavin T fluorescence); type: biochemical; conditions: Aβ 1-42 final concentration 100 μM, 37° C., 1 day, letter = synthetic lot
# T2 construct: Required Aβ (1-42) (California Peptide) was dried from its hexafluoroisopropanol (HFIP) stock solution; purchased California Peptide
# T2 sequence (P05067 672-713 limits assumed): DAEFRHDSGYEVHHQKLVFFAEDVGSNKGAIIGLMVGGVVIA
# Experimental: Required Aβ (1-42) (California Peptide) was dried from its hexafluoroisopropanol (HFIP) stock solution. The Aβ (1-42) was dissolved in dimethylsulfoxide (DMSO) and then mixed with phosphate buffered saline (PBS) (pH 7.4). The mixed Aβ (1-42) solution was filtered with a 0.2 μm Omnipore membrane syringe filter Millipore, Bedford, Mass.). The compound to be tested in DMSO (50 times concentrate) was put into each well (0.5 μL/well) of a 96-well plate. The Aβ (1-42) solution was added into each well (24.5 μL/well). The plate was centrifuged at 1,000 g for 5 minutes and incubated at 37° C. for 1 day (Aβ 1-42; final concentration 100 μM).
# After incubation Thioflavin T (ThT) (30 μM) solution in glycine-NaOH buffer (pH 8.5, 50 mM) was added into each well (250 μL/well), fluorescence was measured (ex=440/20 nm, em=485/20 nm) using a fluorescence plate reader. The inhibitory activity was calculated as the reduction of fluorescence with the following formula: Inhibition (%)={(F(Aβ)−F(Aβ+compound)}/{F(Aβ)−[…]}×100
# The IC50s were calculated by a curve fitting program using the following equation. The data were obtained from two different experiments in triplicate.
# x=Concentration of tested compound (M),
# [3] = target: T1, Aβ(1-40); assay: BASST (Beta-Amyloid Self-Seeding, Thioflavin T), inhibitors of self-seeded amyloid fibril growth; type: biochemical; conditions: read-out: BASST (IC50 = μM)
# Experimental: as §1
# Assay Buffer—50 mM sodium phosphate, pH 7.5, 100 mM NaCl, 0.02% NaN3, 1 M urea (filter and store at 4° C.)
# as §2
# The following are the amounts of the components of the reaction mixture that result in each of the 50 assay wells:
# • 1) Prepare the reaction mix above by mixing the components and storing on ice. • 2) Pipet 14.5 μL of reaction mixture into each of 50 wells of a polystyrene U-bottom 96-well microtiter plate (Corning 25881-96) on ice. • 3) Add 1.7 μL of diluted compound to be tested to each well in a column of eight, including solvent control. Serial 3-fold dilutions from 1 mM (100 μM final) in assay buffer−urea=7 dilutions+zero. Each 96-well plate can therefore accommodate 11 samples+1 Congo Red control (0.039-5 μM final in 2-fold steps). • 4) Seal the plate with aluminum film and incubate for 10 minutes on ice. • 5) Raise the temperature to 37° C. and incubate for 3 to 5 hours (depends on the lot of the peptide). • 6) Remove the aluminum film and add 250 μL/well of 5 μM thioflavin T (ThT) [T-3516, Sigma-Aldrich] in 50 mM glycine-NaOH, pH 8.5. Read fluorescence on a plate reader (ex=440 nm/20 nm; em=485 nm/20 nm) within 5 minutes. BAPA (Beta-Amyloid Peptide Aggregation)
# [4] = target: T3, Aβ (1-40) peptide (Homo sapiens, UniProt P05067); assay: BAPA (Beta-Amyloid Peptide Aggregation, pH 6.0, filtration); type: biochemical; conditions: Aβ (1-40) 33 μM, pH 6.0, 2 to 4 hours at room temperature; replicate values; letter = synthetic lot
# T3 construct: 10 μL 0.5 mg/mL Aβ (1-40) peptide in 20% HFIP
# T3 sequence (P05067 672-711 limits assumed): as the sequence (P05067 672-711 limits assumed) above
# Experimental: Each 96-well plate can therefore accommodate 11 samples+1 Congo Red control (0.039-5 μM final in 2-fold steps). • 4) Seal the plate with aluminum film and incubate for 10 minutes on ice. • 5) Raise the temperature to 37° C. and incubate for 3 to 5 hours (depends on the lot of the peptide). • 6) Remove the aluminum film and add 250 μL/well of 5 μM thioflavin T (ThT) [T-3516, Sigma-Aldrich] in 50 mM glycine-NaOH, pH 8.5. […] The purpose of this assays is to provide a higher volume method of assaying the amount of beta amyloid aggregation using an endpoint assay based on filtration. In this assay, hexafluoroisopropanol (HFIP) is used to break down the initial amyloid peptide to a monomer state and use a concentration of 33 μM which is high enough so that aggregation will occur at pH 6.0 in several hours. Methods: […] Then, we incubate for 2 to 4 hours at room temperature. […] We wash the filter plate with 100 μL of the same phosphate buffer. Aggregation was detected on a Microbeta counter after impregnating the filters with Meltilex (1450-441) and is corrected for background.
# [5] = 30 μM soluble Aβ(1-40) + 125I-labeled Aβ(1-40), 37° C., 3 to 5 hours, replicate values, letter = synthetic lot, ppt = precipitate, V-shaped = inhibition followed by precipitation
# [6] = 30 μM soluble Aβ(1-40), 37° C., 3 to 5 hours, thioflavin T fluorescence, replicate values, letter = synthetic lot
molecule,measurement,setting,value
"O=C(O)c1ccc(Nc2ccc(CCc3ccc(Cl)c(Cl)c3)cc2)cc1 [Example 132, 4-{4-[2-(3,4-Dichloro-phenyl)-ethyl]-phenylamino}-benzoic acid]",IC50,[1]; [5],> 100 µM
same,melting point,,214 to 215 °C
same,IC50,[2],> 100 µM
same,IC50,[3]; [6],10 µM
"O=C(O)c1cc([N+](=O)[O-])ccc1Nc1ccc(CCc2ccc(-c3ccccc3)cc2)cc1 [Example 62, 2-[4-(2-Biphenyl-4-yl-ethyl)phenylamino]-5-nitro-benzoic acid]",IC50,[1]; [5],> 100 µM
same,melting point,,239 to 244 °C
same,IC50,[2],8.98 µM
same,IC50,[3]; [6],1.5 µM
"O=C(O)c1ccccc1Nc1ccc(CCc2ccc(N3CC[C@@H]4CCCC[C@H]4C3)cc2)cc1 [Example 82, 2(4-{2-[(4aS,8aR)-4-(Octahydro-isoquinolin-2-yl)-phenyl]-ethyl}-phenylamino)-benzoic acid]",IC50,[1]; [5],> 100 µM
same,melting point,,203 to 206 °C
same,IC50,[3]; [6],2 µM and 300 nM (2×)
"Cc1ccc(CCc2cccc(Nc3ccccc3C(=O)O)c2)cc1C [Example 124, 2-{3-[2-(3,4-Dimethyl-phenyl)-ethyl]-phenylamino}-benzoic acid]",IC50,[1]; [5],> 100 µM
same,melting point,,182 to 184 °C
same,IC50,[2],62.7 µM
same,IC50,[3]; [6],10 µM
"O=C(O)c1ccccc1Nc1ccc(CCCc2cccc(N3CCCCC3)c2)cc1 [Example 54, 2-{4-[3-(3-Piperidin-1yl-phenyl)-propyl]-phenylamino}-benzoic acid]",IC50,[1]; [5],> 100 µM
same,melting point,,59 to 61 °C
same,IC50,[2],43.9 µM
same,IC50,[3]; [6],0.4 µM
"CCCCN1CCCc2cc(C=C3SC(=S)N(CCCC(=O)O)C3=O)ccc21 [Example 58, 4-{5-[(1-Butyl-1,2,3,4-tetrahydroquinolin-6-yl)methylidene]-4oxo-2-thioxo-thiazolidin-3-yl)butanoic acid]",IC50,[1]; [5],3.5 µM
same,melting point,,152 to 154 °C
same,IC50,[2],5.1 µM
same,IC50,[3]; [6],1 µM
"O=C(O)c1ccccc1Nc1ccc(CCCc2ccc(N3CCCC3)cc2)cc1 [Example 53, 2-{4-[3-(4-Pyrrolidin-1-yl-phenyl)-propyl]-phenylamino}-benzoic acid]",IC50,[1]; [5],> 100 µM
same,melting point,,171 to 177 °C
same,IC50,[2],30 µM
same,IC50,[3]; [6],0.3 µM
"COc1ccc(Nc2ccc(CCCCc3ccc(Cl)c(Cl)c3)cc2)c(C(=O)O)c1 [Example 121, 2-{4-[4-(3,4-Dichloro-phenyl)-butyl]-phenylamino}-5-methoxy-benzoic acid]",IC50,[1]; [5],> 100 µM
same,melting point,,155 to 158 °C
same,IC50,[3]; [6],1 µM
"COc1cc(Nc2ccc(CCCc3ccc(Cl)c(Cl)c3)cc2)c([N+](=O)[O-])cc1C(=O)O [Example 138, 4-{4-[3-(3,4-Dichloro-phenyl)propyl]-phenylamino}-2-methoxy-5-nitro-benzoic acid]",melting point,,74 to 78 °C
2-{4-[3-(3-Aminophenyl)propyl]phenylamino}benzoic acid [Example 23],IC50,[1],20 µM
same,IC50,[2],> 100 µM
same,IC50,[4],17 µM
same,IC50,[3],2 µM
O=C(O)c1ccccc1Nc1ccc(CCc2ccc(Cl)c(C(F)(F)F)c2)cc1 [Example 17],IC50,[1],> 100 µM
same,IC50,[2],64.5 µM
same,IC50,[4],> 60 µM and 41 µM
same,IC50,[3],6.2 µM
"CCN(CC)c1ccc(CCCc2ccc(N(CC)c3ccccc3C(=O)O)cc2)cc1 [Example 30, 2-(N-{4-[3-(4-Diethylaminophenyl)propyl]phenyl}-N-ethylamino)benzoic acid]",IC50,[1]; [5],30 µM and 20 µM
same,IC50,[2],75.3 µM
same,IC50,[4],38 µM
same,IC50,[3]; [6],4 µM and 2 µM
"2-{4-[5-(3,4-Dichloro-phenyl)pentyl]phenylamino}methoxy-5-nitrobenzoic acid [Example 14]",IC50,[1]; [5],18 µM and 8 µM and 6 µM and 7 µM
same,IC50,[2],10.9 µM
same,IC50,[4],> 10 µM
same,IC50,[3]; [6],1 µM
"CCCCN(CCCC)c1ccc(CCCc2ccc(Nc3ccccc3C(=O)O)cc2)cc1 [Example 44, 2-{4-[3-(4-Dibutylaminophenyl)propyl]phenylanino}benzoic acid]",IC50,[1]; [5],> 100 µM
same,IC50,[2],26.5 µM
same,IC50,[4],52 µM
same,IC50,[3]; [6],1 µM
"Nc1ccc(CCCc2ccc(Nc3ccccc3C(=O)O)cc2)cc1 [Example 159, 2-{4-[3-(4-Aminophenyl)propyl]phenylamino}benzoic acid]",melting point,,110 to 112 °C
"Nc1ccc(Nc2ccc(CCCCCc3ccc(Cl)c(Cl)c3)cc2)c(C(=O)O)c1 [Example 140, 5-Amino-2-{4-[5-(3,4-dichloro-phenyl)pentyl]-phenylamino}-benzoic acid]",melting point,,182 to 184 °C
"CCCN(CCC)c1cccc(CCCc2ccc(Nc3ccccc3C(=O)O)cc2)c1 [Example 27, 2-{4-[3-(3-Dipropylaminophenyl)propyl]phenylamino}benzoic acid]",IC50,[1]; [5],> 100 µM
same,IC50,[2],19.8 µM
same,IC50,[4],74 µM
same,IC50,[3]; [6],3 µM
"Clc1ccc(CCc2ccc(Nc3ccccc3-c3nnn[nH]3)cc2)cc1Cl [Example 68, {4-[2-(3,4-Dichloro-phenyl)-ethyl]-phenyl}-[2-(1H-tetrazol-5-yl)phenyl]-amine]",IC50,[1]; [5],> 100 µM
same,IC50,[2],> 100 µM
same,IC50,[4],110 µM
same,IC50,[3]; [6],1 µM
"O=C(O)c1cc(F)ccc1Nc1ccc(CCCc2ccc(Cl)c(Cl)c2)cc1 [Example 139, 2-{4-[3-(3,4-Dichloro-phenyl)-propyl]-phenylamino}-5-fluoro-benzoic acid]",melting point,,122 to 123 °C
